Data taken from patent US4826968A, “S-alkylated coenzyme A with effect on polyamine acetylase” (Research Corporation, priority 1985, dated 1989).

How the values were obtained:
[1] = target: T1, spermidine/spermine N^1 -acetyltransferase (Rattus norvegicus, UniProt Q6P9U6); test: Cytosolic spermidine acetyltransferase assay ([14C]acetyl Coenzyme A, cellulose phosphate paper); format: biochemical; conditions: for potency relative to the sym-norspermidine derivative / inhibitory activity towards spermidine/spermine N^1 -acetyltransferase: FIG. 2; for relative effectiveness in inhibiting the acetylation of spermidine and spermine: inhibitors compared with one another
T1 construct: Cytosolic spermidine acetyltransferase activity was extracted from the livers of male Sprague-Dawley rats; from tissue; host or cells: liver of male Sprague-Dawley rats, 6 h after intraperitoneal carbon tetrachloride; cytosolic extract
Method: Spermidine acetyltransferase activity was assayed in a volume of 100 μl containing 100 μg of extract protein, 300 nmol spermidine, 0.8 nmol (40 nCi) [1^14 C] acetyl Coenzyme A and 10 μmol tris-HCl (pH 7.8). The reaction was allowed to proceed at 30° C. for 10 min and was terminated by the addition of 20 μl of 1M NH2 OH.HCl. Protein was precipitated by boiling the samples for 3 min and was removed by centrifugation. 50 μl of the supernatant was applied to a 2.2 cm diameter disc of cellulose phosphate paper and was allowed to dry. The discs were washed in a beaker five times with water and three times with ethanol.
Non-enzymatic blank values for both histone and spermidine acetylation assays were routinely obtained by incubations of all the reactants excluding enzyme in the appropriate buffer.

rat hematoma cells = test: DNA replication and proliferation of rat hematoma cells in culture; format: cell-based
[2] = system: human prostate gland adenoma cells; test: DNA replication and proliferation of human prostate gland adenoma cells in culture; format: cell-based
tumor growth = test: Experimental tumor models, tumor growth; format: in vivo; conditions: several experimental tumor models
murine tumors = test: Murine tumors, alone and in combination with three cytotoxic agents; format: in vivo
ventral prostate gland = test: Prostate gland secretion, growth and regrowth in rats; format: in vivo
embryogenesis = test: Fertility, implantation and embryonic development in treated mice; format: in vivo
[3] = system: Trypanosoma brucei brucei; test: Replication of and infection by Trypanosoma brucei brucei; conditions: in vivo
[4] = system: exoerythrocyctic infection (malaria); test: Animal studies of malaria; format: in vivo
Pneumocystis carinii = test: Treatment of Pneumocystis carinii pneumonia; format: in vivo; conditions: opportunistic infection in the setting of AIDS
[5] = target: T1, spermidine/spermine N^1 -acetyltransferase; test: Cytosolic spermidine acetyltransferase assay ([14C]acetyl Coenzyme A, cellulose phosphate paper); format: biochemical; conditions: highly purified spermidine/spermine N^1 -acetyltransferase; FIG. 1
histone acetylation = conditions: mammalian cells; cited from earlier work
[6] = female mice treated prior to copulation and up to 18 days after fecundation

T1 sequence (Q6P9U6 1-171): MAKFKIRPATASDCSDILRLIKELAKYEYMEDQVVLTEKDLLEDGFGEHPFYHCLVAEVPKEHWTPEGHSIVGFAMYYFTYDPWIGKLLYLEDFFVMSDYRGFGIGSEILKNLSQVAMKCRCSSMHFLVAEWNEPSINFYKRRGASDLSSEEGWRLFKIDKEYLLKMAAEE

Question: For `CC(C)(COP(=O)(O)OP(=O)(O)OC[C@H]1O[C@@H](n2cnc3c(N)ncnc32)[C@H](O)[C@@H]1OP(=O)(O)O)[C@@H](O)C(=O)NCCC(=O)NCCSCC(=O)NCCCCN` [amide derived from putrescine], which “potency relative to the sym-norspermidine derivative” value [1] is on record?
Answer: much less active

Question: Which “inhibitory activity towards spermidine/spermine N^1 -acetyltransferase” value [1] does the source give for `CC(C)(COP(=O)(O)OP(=O)(O)OC[C@H]1O[C@@H](n2cnc3c(N)ncnc32)[C@H](O)[C@@H]1OP(=O)(O)O)[C@@H](O)C(=O)NCCC(=O)NCCSCC(=O)NCCCNCCCCN` [I, N-[2-(S-Coenzyme A)acetyl] spermidine amide] here?
Answer: strong inhibitors

Question: And the “potency relative to the sym-norspermidine derivative” value [1]?
Answer: more than an order of magnitude less potent

Question: For `NCCCCN` [putrescine], which “relative effectiveness in inhibiting the acetylation of spermidine and spermine” value [1] is on record?
Answer: least effective

Question: Which “potency relative to the sym-norspermidine derivative” value [1] does the source give for `CC(C)(COP(=O)(O)OP(=O)(O)OC[C@H]1O[C@@H](n2cnc3c(N)ncnc32)[C@H](O)[C@@H]1OP(=O)(O)O)[C@@H](O)C(=O)NCCC(=O)NCCSCC(=O)NCCCN` [amide derived from 1,3-diaminopropane] here?
Answer: much less active

Question: What about the “inhibition relative to coenzyme A” value ([1]; FIG. 2C) of the same compound?
Answer: marginally more inhibitory than coenzyme A

Question: What does the source list for `CC(C)(COP(=O)(O)OP(=O)(O)OC[C@H]1O[C@@H](n2cnc3c(N)ncnc32)[C@H](O)[C@@H]1OP(=O)(O)O)[C@@H](O)C(=O)NCCC(=O)NCCSCC(=O)NCCCNCCCN` [N-[2-(S-Coenzyme A)acetyl] sym-norspermidine amide]?
Answer: inhibition of the acetylation of spermidine ([1]; crude cytosolic extracts from livers of carbon tetrachloride treated rats, FIG. 1): very potent inhibitor; dependence of the inhibition on substrate concentration ([1]; no full kinetic analysis): greater when the assays were carried out at lower concentrations with either substrate; DNA replication (rat hematoma cells): inhibits DNA replication; cell proliferation (rat hematoma cells): retards proliferation; DNA replication [2]: inhibits DNA replication; cell proliferation [2]: retards proliferation; tumor growth (tumor growth): Marked retardation or arrest of tumor growth; antitumor effect alone versus each cytotoxic drug (murine tumors; alone): superior to those of each cytotoxic drug; antitumor effect of combination with cytotoxic agents (murine tumors; combination with any of three cytotoxic agents): synegistic; androgen-induced prostatic regrowth (ventral prostate gland; castrated rats): marked slowing; prostate gland secretion (ventral prostate gland; rats): effectively inhibited; growth of the ventral prostate gland (ventral prostate gland; rats, versus control group): significantly less than in the control group; implantation (embryogenesis; [6]): no effect; subsequent embryonic development (embryogenesis; [6]): totally inhibited; fertility (embryogenesis; male and female mice treated prior to mating with untreated animals): no effect on fertility; T.b. brucei infection [3]: completely eliminating the infection; replication of Trypanosoma brucei brucei [3]: inhibits the replication; efficacy against exoerythrocyctic infection [4]: effective therapeutic agent; efficacy in Pneumocystis carinii pneumonia (Pneumocystis carinii): effective in treatment; inhibition of the acetylation of spermidine [5]: very potent inhibitor

Question: With `NCCCN` [1,3-diaminopropane] as the compound, how does the “relative effectiveness in inhibiting the acetylation of spermidine and spermine” value [1] read?
Answer: marginal superiority to putrescine

Question: For `NCCCCNCCCCN` [sym-homospermidine], which “relative effectiveness in inhibiting the acetylation of spermidine and spermine” value [1] is on record?
Answer: an order more effectiveness than the other two compounds

Question: With `CC(C)(COP(=O)(O)OP(=O)(O)OC[C@H]1O[C@@H](n2cnc3c(N)ncnc32)[C@H](O)[C@@H]1OP(=O)(O)O)[C@@H](O)C(=O)NCCC(=O)NCCSCC(=O)NCCCCNCCCCN` [sym-homospermidine derivative] as the compound, how does the “potency relative to the sym-norspermidine derivative” value [1] read?
Answer: ten times less active

Question: With `CC(C)(COP(=O)(O)OP(=O)(O)OC[C@H]1O[C@@H](n2cnc3c(N)ncnc32)[C@H](O)[C@@H]1OP(=O)(O)O)[C@@H](O)C(=O)NCCC(=O)NCCSCC(=O)NCCCNCCCCN` [N-[2-(S-Coenzyme A)acetyl] spermidine amide] as the compound, how does the histone acetylation (histone acetylation) read?
Answer: inhibit histone acetylation

Question: Which “inhibitory activity towards spermidine/spermine N^1 -acetyltransferase” value [1] does the source give for `CC(C)(COP(=O)(O)OP(=O)(O)OC[C@H]1O[C@@H](n2cnc3c(N)ncnc32)[C@H](O)[C@@H]1OP(=O)(O)O)[C@@H](O)C(=O)NCCC(=O)NCCSCC(=O)NCCCCNCCCN` [II, N-[2-(S-Coenzyme A)acetyl] spermidine amide] here?
Answer: strong inhibitors

Question: What about the “potency relative to the sym-norspermidine derivative” value [1] of the same compound?
Answer: more than an order of magnitude less potent
